# Assay results reported in US20260337246A1, “METHODS FOR TREATING OBESITY” (Zealand Pharma A/S, priority 2022, published 2026).
# Test: Predicted half-life in humans
smiles,measurement,value
CC[C@H](C)[C@H](NC(=O)[C@H](Cc1ccccc1)NC(=O)[C@H](C)NC(=O)[C@H](CCC(N)=O)NC(=O)[C@H](C)NC(=O)[C@H](C)NC(=O)[C@H](CCCCNC(=O)COCCOCCNC(=O)COCCOCCNC(=O)CN1CCN(C(=O)CCCCCCCCCCCCCCCCCCC(=O)O)CC1)NC(=O)[C@H](CCCCN)NC(=O)[C@H](CC(=O)O)NC(=O)[C@H](CC(C)C)NC(=O)[C@H](CCC(=O)O)NC(=O)[C@@H](NC(=O)[C@H](CO)NC(=O)[C@H](Cc1ccc(O)cc1)NC(=O)[C@H](CC(=O)O)NC(=O)[C@H](CO)NC(=O)[C@@H](NC(=O)[C@H](Cc1ccccc1)NC(=O)[C@@H](NC(=O)CNC(=O)[C@H](CCC(=O)O)NC(=O)C(C)(C)NC(=O)[C@@H](N)Cc1ccc(O)cc1)[C@@H](C)O)[C@@H](C)CC)[C@@H](C)CC)C(=O)N[C@@H](CCC(=O)O)C(=O)N[C@@H](Cc1c[nH]c2ccccc12)C(=O)N[C@@H](CC(C)C)C(=O)N[C@@H](CC(C)C)C(=O)N[C@@H](C)C(=O)N[C@@H](CCC(N)=O)C(=O)NCC(=O)N1CCC[C@H]1C(=O)N[C@@H](CO)C(=O)N[C@@H](CO)C(=O)NCC(=O)N[C@@H](C)C(=O)N1CCC[C@H]1C(=O)N1CCC[C@H]1C(=O)N1CCC[C@H]1C(=O)N[C@@H](CO)C(N)=O [Compound 41],predicted half-life (in words),half-life supporting once-weekly dosing in humans
